Entries after “also recorded” stand apart in the source; their conditions may differ.
Assays:
[1] = Plasma and urine pharmacokinetics in patients; assay type: in vivo, human
Experimental: Urine PK samples were collected at Cycle 0, Day 1 and at Cycle 1, Day 8 at the following timepoints: pre-dose (Cycle 0, Day 1 only), 0 to 8 h post dose and 8 to 24 h post-dose. […] Maximum observed concentration (Cmax) and time to reach Cmax (tmax) were determined directly by inspection of the concentration-time profiles. Terminal half-life slope (t½λz) was calculated as ln2/terminal elimination rate constant (λz). Area under the plasma concentration time curve from zero to last measurable concentration (AUClast) was calculated using the linear up/log down trapezoidal rule. AUClast was extrapolated to infinity using λz to obtain overall exposure (AUCinf). The amount of drug excreted unchanged in the urine (e.g. Ae0-t, Aeτ) for any given dosing interval was determined by multiplying the concentration of drug determined in the urine sample by the volume of the sample collected in that period.

[2] = tested on: patients with advanced cancer; experiment: Preliminary antitumour activity by RECIST v1.1 (best objective response, target lesion change, PFS);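 further: same imaging modality as baseline kept at every follow-up, response-evaluable patients had ≥1 measurable non-irradiated target lesion ≥10 mm longest diameter and received ≥1 study dose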
Experimental: The imaging method used at baseline had to be used at all follow-up visits. The following parameters were estimated: percentage best change in target lesion; duration of response; objective response rate (ORR); and progression-free survival (PFS).
Descriptive statistics were used for all variables, as appropriate, and calculated only when n ≥ 3. Where data were available for <3 patients, only minimum, maximum and number of observations were provided. Percentages were calculated using the analysis set total and for modules or doses, unless otherwise stated. […] PFS, including median time to PFS and PFS rate at a specific timepoint, was summarized using the Kaplan–Meier method. SAS® version 9.4 was used for all analyses. The PK analysis set included dosed patients for whom an adequate PK profile was obtained.

[3] = 12 patients evaluable for objective response

With `Cc1cc2ncnn2cc1Nc1ncc2c(n1)n(C1CCOCC1)c(=O)n2C` [AZD7648, 7-Methyl-2-[(7-methyl[1,2,4]triazolo[1,5-a]pyridin-6-yl)amino]-9-(tetrahydro-2H-pyran-4-yl)-7,9-dihydro-8H-purin-8-one] the exposure versus dose ([1]; 5 to 160 mg BID) was “increased in a broadly linear manner”, the “fraction excreted unchanged in urine” value ([1]; human, in vivo) was 5–10 % of the total administered dose and the AUC(0-inf) ([1]; human, plasma, oral, 80 mg BID cohort, Cycle 0 Day 1 single dose, read-out: geoMean AUCinf) was 25.2 µM·h. It also gave a Cmax ([1]; human, plasma, oral, 80 mg BID cohort, Cycle 0 Day 1 single dose, read-out: geoMean Cmax) of 2460 nM, a Tmax ([1]; human, plasma, 5 to 160 mg, oral) of 1 to 2 h and a drug exposure achieved ([1]; one patient at the 80 mg dose level) greater than 1 µM. The “Best objective response: Complete response” value ([2]; 5 mg BID (n = 1)) was 0 n (%), the “Best objective response: Death” value ([2]; 5 mg BID (n = 1)) was 0 n (%) and the “Best objective response: Disease progression” value ([2]; 5 mg BID (n = 1)) was 1 (100.0) n (%). The “Best objective response: Not evaluable” value ([2]; 5 mg BID (n = 1)) was 0 n (%), the “Best objective response: Partial response” value ([2]; 5 mg BID (n = 1)) was 0 n (%) and the “Best objective response: Stable disease” value ([2]; 5 mg BID (n = 1)) was 0 n (%). The “Best objective response: Complete response” value ([2]; 5 mg QD (n = 1)) was 0 n (%), the “Best objective response: Death” value ([2]; 5 mg QD (n = 1)) was 0 n (%) and the “Best objective response: Disease progression” value ([2]; 5 mg QD (n = 1)) was 0 n (%). For the same compound, the “Best objective response: Not evaluable” value ([2]; 5 mg QD (n = 1)) was 0 n (%), the “Best objective response: Partial response” value ([2]; 5 mg QD (n = 1)) was 0 n (%) and the “Best objective response: Stable disease” value ([2]; 5 mg QD (n = 1)) was 1 (100.0) n (%). For the same compound, the “Best objective response: Complete response” value ([2]; 10 mg BID (n = 1)) was 0 n (%), the “Best objective response: Death” value ([2]; 10 mg BID (n = 1)) was 0 n (%) and the “Best objective response: Disease progression” value ([2]; 10 mg BID (n = 1)) was 0 n (%). For the same compound, the “Best objective response: Not evaluable” value ([2]; 10 mg BID (n = 1)) was 0 n (%), the “Best objective response: Partial response” value ([2]; 10 mg BID (n = 1)) was 0 n (%) and the “Best objective response: Stable disease” value ([2]; 10 mg BID (n = 1)) was 1 (100.0) n (%). The “Best objective response: Complete response” value ([2]; 20 mg BID (n = 1)) was 0 n (%), the “Best objective response: Death” value ([2]; 20 mg BID (n = 1)) was 0 n (%) and the “Best objective response: Disease progression” value ([2]; 20 mg BID (n = 1)) was 1 (100.0) n (%). The “Best objective response: Not evaluable” value ([2]; 20 mg BID (n = 1)) was 0 n (%), the “Best objective response: Partial response” value ([2]; 20 mg BID (n = 1)) was 0 n (%) and the “Best objective response: Stable disease” value ([2]; 20 mg BID (n = 1)) was 0 n (%). The “Best objective response: Complete response” value ([2]; 40 mg BID (n = 2)) was 0 n (%), the “Best objective response: Death” value ([2]; 40 mg BID (n = 2)) was 1 (50.0) n (%) and the “Best objective response: Disease progression” value ([2]; 40 mg BID (n = 2)) was 1 (50.0) n (%). For the same compound, the “Best objective response: Not evaluable” value ([2]; 40 mg BID (n = 2)) was 0 n (%), the “Best objective response: Partial response” value ([2]; 40 mg BID (n = 2)) was 0 n (%) and the “Best objective response: Stable disease” value ([2]; 40 mg BID (n = 2)) was 0 n (%). For the same compound, the “Best objective response: Complete response” value ([2]; 80 mg BID (n = 4)) was 0 n (%), the “Best objective response: Death” value ([2]; 80 mg BID (n = 4)) was 1 (25.0) n (%) and the “Best objective response: Disease progression” value ([2]; 80 mg BID (n = 4)) was 1 (25.0) n (%). The “Best objective response: Not evaluable” value ([2]; 80 mg BID (n = 4)) was 1 (25.0) n (%), the “Best objective response: Partial response” value ([2]; 80 mg BID (n = 4)) was 0 n (%) and the “Best objective response: Stable disease” value ([2]; 80 mg BID (n = 4)) was 1 (25.0) n (%). The “Best objective response: Complete response” value ([2]; 160 mg BID (n = 2)) was 0 n (%), the “Best objective response: Death” value ([2]; 160 mg BID (n = 2)) was 0 n (%) and the “Best objective response: Disease progression” value ([2]; 160 mg BID (n = 2)) was 1 (50.0) n (%). For the same compound, the “Best objective response: Not evaluable” value ([2]; 160 mg BID (n = 2)) was 0 n (%), the “Best objective response: Partial response” value ([2]; 160 mg BID (n = 2)) was 0 n (%) and the “Best objective response: Stable disease” value ([2]; 160 mg BID (n = 2)) was 1 (50.0) n (%). The “patients who died due to disease progression” value [2, 3] was 16.7%, the “patients with RECIST disease progression” value [2, 3] was 41.7% and the “patients with RECIST stable disease” value [2, 3] was 33.3%. The “Best objective response: Complete response” value ([2]; All cohorts of the module) was 0 n (%), the “Best objective response: Death” value ([2]; All cohorts of the module) was 2 (16.7) n (%) and the “Best objective response: Disease progression” value ([2]; All cohorts of the module) was 5 (41.7) n (%). For the same compound, the “Best objective response: Not evaluable” value ([2]; All cohorts of the module) was 1 (8.3) n (%), the “Best objective response: Partial response” value ([2]; All cohorts of the module) was 0 n (%) and the “Best objective response: Stable disease” value ([2]; All cohorts of the module) was 4 (33.3) n (%). The “Median PFS” value ([2]; Kaplan–Meier, all dose levels) was 1.91 months, the “PFS rate at 6 months” value ([2]; Kaplan–Meier, all dose levels) was 23.08% and the RECIST response observed ([2]; all dose levels) was “No responses; also recorded: No patient had a RECIST complete or partial response”. The “percentage change in target lesion size from baseline” value ([2]; one patient with stable disease, 80 mg BID) was −29.2% and the “best percentage change from baseline in target lesion size, increase of the patient capped in the waterfall plot” value ([2]; single patient) was 108.33%.
